Measurements reported in US10031128B2, “Screening method, screening kit and analysis program” (National Institutes for Quantum and Radiological Science …, priority 2012, dated 2018).
Like-named read-outs stand apart in the source and are kept apart here.

System: rat thymocytes
Type: cell-based
Conditions: 4 h, pH 6.8
Experimental: As Example 1, an example using thymocytes as lymphoid cells will be described. In this example, rat thymocytes are used. A rat is suited for studies of screening and the like because a rat has the thymus larger than that of a mouse, and a large quantity of thymocytes corresponding to 2000 to 20000 samples is obtained from one rat.
(1) First, extract the thymus surgically from a rat.
(2) The extracted thymus is washed lightly in PBS. This washing may be performed for 1 minute to 5 minutes, and actually for 2 minutes to 3 minutes merely for washing out excess blood or tissues.
(3) The washed thymus is put into a RPMI 1640 medium supplemented with approximately 10% FBS (fetal bovine serum) (having subjected to an inactivation treatment). As the inactivation treatment, a heat treatment at 56° C. is performed for 30 minutes. In the example, the RPMI 1640 medium is 500 ml (ml is a unit symbol for milliliter, the same shall apply hereinafter), and FBS is 55 ml. Thereafter, the thymocytes are kept in the RPMI 1640 medium supplemented with serum to improve the separating ability of the presence or absence of condensation, and improve the measurement accuracy.
(4) Thymocytes are squeezed out of the thymus with tweezers, and passed through mesh to remove unnecessary contaminants and to disassemble the thymocytes. The culture temperature during this treatment is 4° C., and pH is 6.8. The amount of the medium used during cell purification is approximately 20 ml.
(5) The number of cells is counted, and a required number of the cells are seeded on a plate. In the experiment of this example, 5×10^5 cells/well are seeded using a 48-well plate. Also, since measurement is performed for about 20 samples in the experiment of this example, approximately 10 ml of a medium is used. As the medium, a medium of the volume conforming to the container is required. For example, when a 48-well plate is used, approximately 500 μl/well (microliter per well) is required in seeding cells on the plate. When a 96-well plate is used, approximately 50 to 200 μl/well is required in seeding cells on the plate. When one 96-well plate is used, up to approximately 20 ml of a medium is required.
In this example, (I) irradiation with 2 Gy X-ray, (II) administration with a 1 mM (mM is a unit symbol for millimolar, the same shall apply hereinafter) catechin derivative, (III) preliminary administration with a 1 mM catechin derivative and irradiation with 2 Gy X-ray, (IV) administration with 100 μM epigallocatechin (μM is a unit symbol for micromolar, the same shall apply hereinafter), (V) administration with 10 μM vitamin C, or (VI) administration with 100 μM vitamin C was performed. The temperature of the medium in performing this treatment can be 4° C. to room temperature, and is preferably approximately 4° C. so as not to promote the reaction. Gray (Gy) is a unit for absorbed dose of radiation. The absorbed dose when 1 joule of radiation energy is absorbed in 1 kilogram of a substance by radiation is defined as 1 gray.
The samples of (I) to (VI) in Step 2 were incubated for 4 hours. During the incubation, the medium is at a temperature of 37° C., at a CO2 concentration of 5%, under humidification, and at pH 6.8.
After the incubation in Step 3, measurement was performed by using FACSCALIBUR™ (a flow cytometry system). The time required for the measurement is about one hour. […]
FIG. 2(A) to FIG. 2(D), and FIG. 3(A) to FIG. 3(D) are cell size measurement graphs showing measured cell sizes. […]

| SMILES | peak of cell size (cell size measurement graph) (100 μM) | another peak at apoptotic cell peak position (cell size) (10 μM) | peak of cell size (cell size measurement graph) (10 μM) | another peak at apoptotic cell peak position (cell size) (100 μM) |
| --- | --- | --- | --- | --- |
| Oc1cc(O)c2c(c1)O[C@H](c1cc(O)c(O)c(O)c1)[C@H](O)C2 [epigallocatechin] | around 300 | – | – | – |
| O=C1O[C@H]([C@@H](O)CO)C(O)=C1O [vitamin C] | around 400 | around 250 | around 400 | around 250 |
